The test system of this assay is L1210 leukemia ip in BDF1 mice, survival T/C. Kind of assay: NCI In Vivo Anticancer Drug Screen. Data for tumor model L1210 Leukemia (intraperitoneal) in B6D2F1 (BDF1) mice. The following applies: endpoint: mean survival time, higher = longer survival. The method, boiled down:
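Ratio derived from survival: compound-dosed mice over vehicle-dosed mice, all bearing a transplantable tumor.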

[1] abbreviates: dose: 100.0 mg/kg/injection, schedule: Q01DX001 (ip), vehicle: other.
Where [2] appears, read: dose: 200.0 mg/kg/injection, schedule: Q01DX001 (ip), vehicle: other.
Setting [3] is: dose: 100.0 mg/kg/injection, schedule: Q04DX003 (ip), vehicle: saline with Tween-80.
Setting [4] is: dose: 100.0 mg/kg/injection, schedule: Q01DX009 (ip), vehicle: saline.
The mark [5] stands for this setting: dose: 100.0 mg/kg/injection, schedule: Q04DX003 (ip), vehicle: saline.
The mark [6] stands for this setting: dose: 100.0 mg/kg/injection, schedule: Q01DX009 (ip), vehicle: Klucel (hydroxypropylcellulose) (HPC).
Where [7] appears, read: dose: 200.0 mg/kg/injection, schedule: Q01DX009 (ip), vehicle: Klucel (hydroxypropylcellulose) (HPC).
[8] abbreviates: dose: 400.0 mg/kg/injection, schedule: Q01DX009 (ip), vehicle: Klucel (hydroxypropylcellulose) (HPC).
Where [9] appears, read: dose: 100.0 mg/kg/injection, schedule: Q01DX001 (ip), vehicle: saline.
Where [10] appears, read: dose: 200.0 mg/kg/injection, schedule: Q01DX001 (ip), vehicle: saline.
[11] abbreviates: dose: 400.0 mg/kg/injection, schedule: Q01DX001 (ip), vehicle: saline.
[12] abbreviates: dose: 200.0 mg/kg/injection, schedule: Q01DX009 (ip), vehicle: saline.
Where [13] appears, read: dose: 200.0 mg/kg/injection, schedule: Q04DX003 (ip), vehicle: saline.
[14] abbreviates: dose: 400.0 mg/kg/injection, schedule: Q01DX009 (ip), vehicle: saline.
Setting [15] is: dose: 400.0 mg/kg/injection, schedule: Q04DX003 (ip), vehicle: saline.
Setting [16] is: dose: 5.0 mg/kg/injection, schedule: Q01DX001 (ip), vehicle: carboxymethylcellulose (CMC).
Setting [17] is: dose: 100.0 mg/kg/injection, schedule: Q04DX003 (ip), vehicle: Klucel (hydroxypropylcellulose) (HPC).
Setting [18] is: dose: 400.0 mg/kg/injection, schedule: Q04DX003 (ip), vehicle: Klucel (hydroxypropylcellulose) (HPC).

Values joined by “and” are separate entries in the source; they are usually repeats but may differ in a detail not shown here. Equal values may be shown once. Inconclusive results and toxic doses are left out.

With `COc1cc2c(cc1OC)-c1cc3cc(OC)c(OC)cc3c(CCC(=O)O)[n+]1CC2`, the T/C is 95 % of control (dose: 20.0 mg/kg/injection, schedule: Q04DX002 (ip), vehicle: Klucel (hydroxypropylcellulose) (HPC)); 88 % of control (dose: 40.0 mg/kg/injection, schedule: Q04DX002 (ip), vehicle: Klucel (hydroxypropylcellulose) (HPC)); 109 % of control (dose: 80.0 mg/kg/injection, schedule: Q04DX002 (ip), vehicle: Klucel (hydroxypropylcellulose) (HPC)).
Regarding `CCCCCCCCCCCCCCCCCCCCCCCCCCCCCCCS`, the T/C is, setting by setting: under setting [1], 95 % of control; under setting [2], 103 % of control.
For the molecule `Cc1ccc(N=C(N)NC#N)cc1C`, the T/C runs as follows: under setting [3], 102 % of control; (dose: 200.0 mg/kg/injection, schedule: Q04DX003 (ip), vehicle: saline with Tween-80) 102 % of control; (dose: 400.0 mg/kg/injection, schedule: Q04DX003 (ip), vehicle: saline with Tween-80) 102 % of control.
Consider `CCN(CC)CCOc1cc(C)ccc1C`, for which the T/C is 98 % of control (dose: 25.0 mg/kg/injection, schedule: Q01DX009 (ip), vehicle: saline); 93 % of control (dose: 50.0 mg/kg/injection, schedule: Q01DX009 (ip), vehicle: saline); 100 % of control (dose: 50.0 mg/kg/injection, schedule: Q04DX003 (ip), vehicle: saline); 95 % of control under setting [4]; 98 % of control under setting [5].
On to `CC(C)(C)OC(=O)C(N)CC(N)=O` (configuration not stated), for which the T/C by setting is: under setting [6], 106 % of control; (dose: 100.0 mg/kg/injection, schedule: Q04DX002 (ip), vehicle: Klucel (hydroxypropylcellulose) (HPC)) 103 % of control; under setting [7], 106 % of control; (dose: 200.0 mg/kg/injection, schedule: Q04DX002 (ip), vehicle: Klucel (hydroxypropylcellulose) (HPC)) 88 % of control; under setting [8], 98 % of control; (dose: 400.0 mg/kg/injection, schedule: Q04DX002 (ip), vehicle: Klucel (hydroxypropylcellulose) (HPC)) 98 % of control.
For the molecule `Cc1cn(C2OC(CO)C(O)C(O)C2N)c(=O)[nH]c1=O` (configuration not stated), the T/C reads like this: (dose: 50.0 mg/kg/injection, schedule: Q01DX001 (ip), vehicle: saline) 107 % of control; under setting [9], 97 % of control and 103 % of control; under setting [10], 97 % of control and 108 % of control; under setting [11], 103 % of control and 105 % of control.
With `CCN(C)CCN(C)CC`, the T/C by setting is: under setting [4], 102 % of control; under setting [5], 97 % of control; under setting [12], 104 % of control; under setting [13], 99 % of control; under setting [14], 106 % of control; under setting [15], 99 % of control.
`CCCCCCCC[Se](=O)O`: the T/C by setting is: under setting [16], 95 % of control; (dose: 10.0 mg/kg/injection, schedule: Q01DX001 (ip), vehicle: carboxymethylcellulose (CMC)) 109 % of control; (dose: 20.0 mg/kg/injection, schedule: Q01DX001 (ip), vehicle: carboxymethylcellulose (CMC)) 109 % of control.
On to `Cn1nnnc1/N=C/c1ccccc1`, for which the T/C by setting is: under setting [5], 105 % of control; under setting [13], 94 % of control; under setting [15], 94 % of control.
`N/N=C(\N)c1cn(C2OC(CO)C(O)C2O)c2ncnc(N)c12` (configuration not stated): under setting [16], the T/C is 109 % of control.
Consider `O=C(NCCCl)NCC1CCCO1` (configuration not stated), for which the T/C (dose: 50.0 mg/kg/injection, schedule: Q04DX003 (ip), vehicle: Klucel (hydroxypropylcellulose) (HPC)) was 103 % of control; the T/C under setting [17] is 103 % of control; the T/C (dose: 200.0 mg/kg/injection, schedule: Q04DX003 (ip), vehicle: Klucel (hydroxypropylcellulose) (HPC)) is 103 % of control; the T/C under setting [18] was 90 % of control.
In the case of `O=C(Nc1ccc(-c2nc3ccccc3[nH]2)cc1)c1ccc(C(=O)Nc2ccc(-c3nc4ccccc4[nH]3)cc2)cc1`, the T/C (dose: 15.0 mg/kg/injection, schedule: Q01DX Z (ip), vehicle: carboxymethylcellulose (CMC)) was 97 % of control; the T/C (dose: 30.0 mg/kg/injection, schedule: Q01DX Z (ip), vehicle: carboxymethylcellulose (CMC)) is 97 % of control; the T/C (dose: 60.0 mg/kg/injection, schedule: Q01DX Z (ip), vehicle: carboxymethylcellulose (CMC)) is 94 % of control; the T/C (dose: 120.0 mg/kg/injection, schedule: Q01DX Z (ip), vehicle: carboxymethylcellulose (CMC)) is 100 % of control.
`CN(CCCCN(C)CCOS(C)(=O)=O)CCOS(C)(=O)=O`: the T/C runs as follows: (dose: 1.7 mg/kg/injection, schedule: Q01DX015 (ip), vehicle: saline) 177 % of control; (dose: 8.3 mg/kg/injection, schedule: Q01DX001 (ip), vehicle: saline) 155 % of control; (dose: 12.5 mg/kg/injection, schedule: Q01DX001 (ip), vehicle: saline) 160 % of control; (dose: 18.7 mg/kg/injection, schedule: Q01DX001 (ip), vehicle: saline) 155 % of control; (dose: 25.0 mg/kg/injection, schedule: Q01DX001 (ip), vehicle: saline) 116 % of control.
Turning to `N=C(N)c1ccc(C(=O)Oc2ccc([N+](=O)[O-])cc2)cc1`, the T/C was 103 % of control (dose: 25.0 mg/kg/injection, schedule: Q01DX009 (ip), vehicle: saline with Tween-80); 94 % of control (dose: 25.0 mg/kg/injection, schedule: Q04DX003 (ip), vehicle: saline with Tween-80); 97 % of control (dose: 50.0 mg/kg/injection, schedule: Q01DX009 (ip), vehicle: saline with Tween-80); 97 % of control (dose: 50.0 mg/kg/injection, schedule: Q04DX003 (ip), vehicle: saline with Tween-80); 98 % of control and 92 % of control under setting [3].
Turning to `Cc1cc(=O)[nH]c2oc(-c3ccccc3)cc(=O)c12`, the T/C under setting [9] was 101 % of control, the T/C under setting [10] was 103 % of control and the T/C under setting [11] is 100 % of control.
As for `CCCCCCCCOC(=O)c1[nH]cnc1/N=N/N(C)CCCC`, the T/C under setting [1] was 107 % of control; the T/C under setting [2] is 107 % of control; the T/C (dose: 400.0 mg/kg/injection, schedule: Q01DX001 (ip), vehicle: other) was 102 % of control.
As for `O=[N+]([O-])c1ccccc1N=N/C(Cc1ccccc1)=N\Nc1ccccc1`, the T/C is 92 % of control (dose: 50.0 mg/kg/injection, schedule: Q01DX009 (ip), vehicle: Klucel (hydroxypropylcellulose) (HPC)); 92 % of control under setting [6]; 89 % of control under setting [17]; 93 % of control under setting [7]; 94 % of control under setting [8]; 92 % of control under setting [18].
As to `Clc1ccc(/C=N/Nc2nnc(N/N=C/c3ccc(Cl)cc3Cl)c3ccccc23)c(Cl)c1`, the T/C is, setting by setting: (dose: 50.0 mg/kg/injection, schedule: Q01DX001 (ip), vehicle: carboxymethylcellulose (CMC)) 88 % of control; (dose: 100.0 mg/kg/injection, schedule: Q01DX001 (ip), vehicle: carboxymethylcellulose (CMC)) 89 % of control; (dose: 200.0 mg/kg/injection, schedule: Q01DX001 (ip), vehicle: carboxymethylcellulose (CMC)) 93 % of control; (dose: 400.0 mg/kg/injection, schedule: Q01DX001 (ip), vehicle: carboxymethylcellulose (CMC)) 100 % of control.
Turning to `CC(=O)OC12C=CC(C(C)=C1)C1C(=O)C=CC(=O)C12` (configuration not stated), the T/C reads like this: under setting [9], 103 % of control; under setting [4], 98 % of control; under setting [5], 103 % of control; under setting [10], 97 % of control; under setting [12], 89 % of control; under setting [13], 103 % of control. The T/C by setting is: under setting [11], 97 % of control; under setting [14], 90 % of control; under setting [15], 87 % of control.
As to `Cc1c(Cl)cccc1NC(=O)COc1ccc(Cl)cc1Cl`, the T/C by setting is: (dose: 100.0 mg/kg/injection, schedule: Q01DX009 (ip), vehicle: saline with Tween-80) 88 % of control; (dose: 200.0 mg/kg/injection, schedule: Q01DX009 (ip), vehicle: saline with Tween-80) 93 % of control; (dose: 400.0 mg/kg/injection, schedule: Q01DX009 (ip), vehicle: saline with Tween-80) 98 % of control.

The values are drawn from PubChem BioAssay AID248 (DTP/NCI, 2004).
